According to patent US20060069132A1, “Azolecarboxamide herbicides” (priority 2004, published 2006):

Key:
[1] = system: barnyardgrass; assay: Test A pre-/postemergence herbicide test; format: in vivo, Echinochloa crus-galli
Procedure, shortened: (§1)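 Seeds sown in sandy loam received a preemergence directed soil spray of compound in non-phytotoxic solvent with surfactant; postemergence plants (2–10 cm, one- to two-leaf stage) were sprayed to runoff at the same time. After ~10 days in greenhouse, injury was rated visually versus untreated controls (0 = no effect, 100 = complete control).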

[2] = system: large crabgrass; assay: Test A pre-/postemergence herbicide test; format: in vivo, Digitaria sanguinalis
Procedure, shortened: as §1

[3] = system: giant foxtail; assay: Test A pre-/postemergence herbicide test; format: in vivo, Setaria faberi
Procedure, shortened: as §1

[4] = system: morningglory; assay: Test A pre-/postemergence herbicide test; format: in vivo, Ipomoea spp.
Procedure, shortened: as §1

[5] = system: redroot pigweed; assay: Test A pre-/postemergence herbicide test; format: in vivo, Amaranthus retroflexus
Procedure, shortened: as §1

[6] = system: velvetleaf; assay: Test A pre-/postemergence herbicide test; format: in vivo, Abutilon theophrasti
Procedure, shortened: as §1

[7] = system: barnyardgrass; assay: Test B pre-/postemergence herbicide test; format: in vivo, Echinochloa crus-galli; settings: for Barnyardgrass plant response rating: postemergence, scale 0 (no effect) to 100 (complete control)
Procedure, shortened: (§2)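 Formulation: non-phytotoxic solvent mix with surfactant. Timing: preemergence on seed and postemergence on 2–18 cm plants, applied concurrently. Readout after 13–15 d greenhouse: visual 0–100 control rating against controls.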

[8] = system: Surinam grass; assay: Test B pre-/postemergence herbicide test; format: in vivo, Urochloa decumbens; settings: for Surinam Grass plant response rating: postemergence, scale 0 (no effect) to 100 (complete control)
Procedure, shortened: (§3)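 Pre: seeds sown, then sprayed. Post: 1–4-leaf plants (2–18 cm) sprayed at the same time. Paddy: flooded, treated at 2-leaf stage. Formulation: non-phytotoxic solvent with surfactant. Greenhouse 13–15 days; visual 0–100 score relative to controls.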

[9] = system: cocklebur; assay: Test B pre-/postemergence herbicide test; format: in vivo, Xanthium strumarium; settings: for Cocklebur plant response rating: postemergence, scale 0 (no effect) to 100 (complete control)
Procedure, shortened: as §2

[10] = system: corn; assay: Test B pre-/postemergence herbicide test; format: in vivo, Zea mays; settings: for Corn plant response rating: postemergence, scale 0 (no effect) to 100 (complete control)
Procedure, shortened: as §3

[11] = system: large crabgrass; assay: Test B pre-/postemergence herbicide test; format: in vivo, Digitaria sanguinalis; settings: for Crabgrass, Large plant response rating: postemergence, scale 0 (no effect) to 100 (complete control)
Procedure, shortened: as §3

[12] = system: giant foxtail; assay: Test B pre-/postemergence herbicide test; format: in vivo, Setaria faberi; settings: for Foxtail, Giant plant response rating: postemergence, scale 0 (no effect) to 100 (complete control)
Procedure, shortened: as §3

[13] = system: lambsquarters; assay: Test B pre-/postemergence herbicide test; format: in vivo, Chenopodium album; settings: for Lambsquarters plant response rating: postemergence, scale 0 (no effect) to 100 (complete control)
Procedure, shortened: as §3

[14] = system: morningglory; assay: Test B pre-/postemergence herbicide test; format: in vivo, Ipomoea coccinea; settings: for Morningglory plant response rating: postemergence, scale 0 (no effect) to 100 (complete control)
Procedure, shortened: as §2

[15] = system: pigweed; assay: Test B pre-/postemergence herbicide test; format: in vivo, Amaranthus retroflexus; settings: for Pigweed plant response rating: postemergence, scale 0 (no effect) to 100 (complete control)
Procedure, shortened: as §3

[16] = system: rice; assay: Test B pre-/postemergence herbicide test; format: in vivo, Oryza sativa; settings: 0 = no effect, 100 = complete control, preemergence
Procedure, shortened: as §3

[17] = system: velvetleaf; assay: Test B pre-/postemergence herbicide test; format: in vivo, Abutilon theophrasti; settings: for Velvetleaf plant response rating: postemergence, scale 0 (no effect) to 100 (complete control)
Procedure, shortened: as §3

[18] = system: blackgrass; assay: Test B postemergence herbicide test; format: in vivo, Alopecurus myosuroides; settings: postemergence, visual rating, scale 0 (no effect) to 100 (complete control)
Procedure, shortened: (§4)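 Scale 0–100: zero equals no visible effect, 100 complete control, judged by eye relative to controls. Timing: 13 to 15 days in greenhouse post-treatment. Growth stage at spraying: two leaves (paddy) or one to four leaves, 2–18 cm (postemergence).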

[19] = system: wheat; assay: Test B postemergence herbicide test; format: in vivo, Triticum aestivum; parameters: key to Wheat plant response rating: 0 = no effect, 100 = complete control; settings: postemergence, visual rating, scale 0 (no effect) to 100 (complete control)
Procedure, shortened: (§5)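 Postemergence plants were sprayed with formulated test chemicals at 2 to 18 cm height (1- to 4-leaf stage); paddy species were grown to the 2-leaf stage. After 13 to 15 days in a greenhouse, injury was rated visually against untreated controls on a 0–100 scale (0 = no effect, 100 = complete control).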

[20] = system: wild oat; assay: Test B postemergence herbicide test; format: in vivo, Avena fatua; settings: postemergence, visual rating, scale 0 (no effect) to 100 (complete control)
Procedure, shortened: as §5

[21] = system: rice; assay: Test B flooded paddy test; format: in vivo, Oryza sativa; settings: 1000 g ai/ha, visual rating, scale 0 to 100 (0 no effect, 100 complete control), 13 to 15 days
Procedure, shortened: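 Plants grow to 1- to 4-leaf stage (2–18 cm) for postemergence spraying, or to 2-leaf stage for the paddy test. Formulated compound is applied. Greenhouse holding lasts 13–15 days. Response is scored visually relative to controls, 0 no effect to 100 complete control; a dash means no result.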

[22] = system: small flower umbrella sedge; assay: Test B flooded paddy test; format: in vivo, Cyperus difformis; settings: 1000 g ai/ha, visual rating, scale 0 to 100 (0 no effect, 100 complete control), 13 to 15 days
Procedure, shortened: as §4

[23] = system: ducksalad; assay: Test B flooded paddy test; format: in vivo, Heteranthera limosa; settings: 1000 g ai/ha, visual rating, scale 0 to 100 (0 no effect, 100 complete control), 13 to 15 days
Procedure, shortened: as §4

[24] = system: barnyardgrass; assay: Test B flooded paddy test; format: in vivo, Echinochloa crus-galli; settings: 1000 g ai/ha, visual rating, scale 0 to 100 (0 no effect, 100 complete control), 13 to 15 days
Procedure, shortened: as §4

[25] = Postemergence, 500 g ai/ha, 0 to 100 scale, 0 no effect, 100 complete control
[26] = Postemergence, 2000 g ai/ha, 0 to 100 scale, 0 no effect, 100 complete control
[27] = Preemergence, 2000 g ai/ha, visual rating, 0 to 100 scale (0 no effect, 100 complete control)
[28] = preemergence, 500 g ai/ha, visual injury, 0 to 100 scale (0 no effect, 100 complete control)
[29] = 125 g ai/ha, 0 = no effect, 100 = complete control, preemergence
[30] = 500 g ai/ha, visual rating, 0 = no effect, 100 = complete control, preemergence

SMILES: C#CCNC(=O)c1cccc(NC(=O)c2sc(C(C)(C)C)nc2CC)n1 [Compound 217]
- Barnyardgrass plant response rating [1, 25]: 0
- Plant response rating, Barnyardgrass [1, 26]: 0
- Barnyardgrass plant response rating [1, 27]: 0
- Barnyardgrass plant response rating [1, 28]: 0
- Crabgrass, Large plant response rating [2, 25]: 0
- Plant response rating, Crabgrass, Large [2, 26]: 20
- Crabgrass, Large plant response rating [2, 27]: 10
- Crabgrass, Large plant response rating [2, 28]: 0
- Foxtail, Giant plant response rating [3, 25]: 0
- Plant response rating, Foxtail, Giant [3, 26]: 0
- Foxtail, Giant plant response rating [3, 27]: 10
- Foxtail, Giant plant response rating [3, 28]: 0
- Morningglory plant response rating [4, 25]: 15
- Plant response rating, Morningglory [4, 26]: 25
- Morningglory plant response rating [4, 27]: 0
- Morningglory plant response rating [4, 28]: 0
- Pigweed plant response rating [5, 25]: 10
- Plant response rating, Pigweed [5, 26]: 25
- Pigweed plant response rating [5, 27]: 40
- Pigweed plant response rating [5, 28]: 0
- Velvetleaf plant response rating [6, 25]: 5
- Plant response rating, Velvetleaf [6, 26]: 30
- Velvetleaf plant response rating [6, 27]: 5
- Velvetleaf plant response rating [6, 28]: 0
- Barnyardgrass plant response rating (0 to 100 scale) [7, 29]: 0
- Plant response rating, Barnyardgrass [7, 30]: 0
- Barnyardgrass plant response rating ([7]; 125 g ai/ha, visual rating): 0
- Barnyardgrass plant response rating ([7]; 500 g ai/ha, visual rating): 0
- Surinam Grass plant response rating (0 to 100 scale) [8, 29]: 0
- Plant response rating, Surinam Grass [8, 30]: 0
- Surinam Grass plant response rating ([8]; 125 g ai/ha, visual rating): 0
- Surinam Grass plant response rating ([8]; 500 g ai/ha, visual rating): 10
- Cocklebur plant response rating (0 to 100 scale) [9, 29]: 0
- Plant response rating, Cocklebur [9, 30]: 0
- Cocklebur plant response rating ([9]; 125 g ai/ha, visual rating): 0
- Cocklebur plant response rating ([9]; 500 g ai/ha, visual rating): 0
- Corn plant response rating (0 to 100 scale) [10, 29]: 0
- Plant response rating, Corn [10, 30]: 0
- Corn plant response rating ([10]; 125 g ai/ha, visual rating): 0
- Corn plant response rating ([10]; 500 g ai/ha, visual rating): 0
- Crabgrass, Large plant response rating (0 to 100 scale) [11, 29]: 0
- Plant response rating, Crabgrass, Large [11, 30]: 0
- Crabgrass, Large plant response rating ([11]; 125 g ai/ha, visual rating): 0
- Crabgrass, Large plant response rating ([11]; 500 g ai/ha, visual rating): 0
- Foxtail, Giant plant response rating (0 to 100 scale) [12, 29]: 0
- Plant response rating, Foxtail, Giant [12, 30]: 0
- Foxtail, Giant plant response rating ([12]; 125 g ai/ha, visual rating): 0
- Foxtail, Giant plant response rating ([12]; 500 g ai/ha, visual rating): 0
- Lambsquarters plant response rating (0 to 100 scale) [13, 29]: 0
- Plant response rating, Lambsquarters [13, 30]: 0
- Lambsquarters plant response rating ([13]; 125 g ai/ha, visual rating): 0
- Lambsquarters plant response rating ([13]; 500 g ai/ha, visual rating): 0
- Morningglory plant response rating (0 to 100 scale) [14, 29]: 0
- Plant response rating, Morningglory [14, 30]: 0
- Morningglory plant response rating ([14]; 125 g ai/ha, visual rating): 0
- Morningglory plant response rating ([14]; 500 g ai/ha, visual rating): 10
- Pigweed plant response rating (0 to 100 scale) [15, 29]: 0
- Plant response rating, Pigweed [15, 30]: 0
- Pigweed plant response rating ([15]; 125 g ai/ha, visual rating): 0
- Pigweed plant response rating ([15]; 500 g ai/ha, visual rating): 0
- Rice plant response rating (0 to 100 scale) ([16]; 125 g ai/ha): 0
- Plant response rating, Rice ([16]; 500 g ai/ha, visual rating): 0
- Velvetleaf plant response rating (0 to 100 scale) [17, 29]: 0
- Plant response rating, Velvetleaf [17, 30]: 0
- Velvetleaf plant response rating ([17]; 125 g ai/ha, visual rating): 0
- Velvetleaf plant response rating ([17]; 500 g ai/ha, visual rating): 10
- Blackgrass plant response rating ([18]; 125 g ai/ha): 0
- Blackgrass plant response rating ([18]; 500 g ai/ha): 0
- Wheat plant response rating ([19]; 125 g ai/ha): 0
- Wheat plant response rating ([19]; 500 g ai/ha): 0
- Oat, Wild plant response rating ([20]; 125 g ai/ha): 0
- Oat, Wild plant response rating ([20]; 500 g ai/ha): 0
- Rice plant response rating [21]: 0
- Sedge, Umbrella plant response rating [22]: 0
- Ducksalad plant response rating [23]: 0
- Barnyardgrass plant response rating [24]: 0
